In patent US11124494B2, “Aryl heterocyclic piperidinone formyl peptide 2 receptor and formyl peptide 1 receptor agonists” (Bristol-Myers Squibb Company, priority 2017, dated 2021) one finds EC50 data, which are given here for 49 compounds.

SMILES strings stand for the structures.

The test deals with human FPR2 receptors (Homo sapiens (Human), UniProt P25090). The test is described as follows: FPR2 cyclic adenosine monophosphate (cAMP) assay. The format is cell-based. Conditions: hFPR2 Assay, CHO cells overexpressing human FPR2; potency bins; read-out: hFPR2 agonist activity EC50 values. The method, then: FPR2 and FPR1 Cyclic Adenosine Monophosphate (cAMP) Assays. A mixture of forskolin (5 μM final for FPR2 or 10 μM final for FPR1) and IBMX (200 μM final) were added to 384-well Proxiplates (Perkin-Elmer) pre-dotted with test compounds in DMSO (1% final) at final concentrations in the range of 1.7 nM to 100 μM. Chinese Hamster Ovary cells (CHO) overexpressing human FPR1 or human FPR2 receptors were cultured in F-12 (Ham's) medium supplemented with 10% qualified FBS, 250 μg/ml zeocin and 300 μg/ml hygromycin (Life Technologies). Reactions were initiated by adding 2,000 human FPR2 cells per well or 4,000 human FPR1 cells per well in Dulbecco's PBS (with calcium and magnesium) (Life Technologies) supplemented with 0.1% BSA (Perkin-Elmer). The reaction mixtures were incubated for 30 min at room temperature. The level of intracellular cAMP was determined using the HTRF HiRange cAMP assay reagent kit (Cisbio) according to manufacturer's instruction. Solutions of cryptate conjugated anti-cAMP and d2 flurorophore-labelled cAMP were made in a supplied lysis buffer separately. Upon completion of the reaction, the cells were lysed with equal volume of the d2-cAMP solution and anti-cAMP solution. After a 1-h room temperature incubation, time-resolved fluorescence intensity was measured using the Envision (Perkin-Elmer) at 400 nm excitation and dual emission at 590 nm and 665 nm. A calibration curve was constructed with an external cAMP standard at concentrations ranging from 1 μM to 0.1 pM by plotting the fluorescent intensity ratio from 665 nm emission to the intensity from the 590 nm emission against cAMP concentrations. The potency and activity of a compound to inhibit cAMP production was then determined by fitting to a 4-parametric logistic equation from a plot of cAMP level versus compound concentrations.
Chain of human FPR2 receptors (P25090 whole entry): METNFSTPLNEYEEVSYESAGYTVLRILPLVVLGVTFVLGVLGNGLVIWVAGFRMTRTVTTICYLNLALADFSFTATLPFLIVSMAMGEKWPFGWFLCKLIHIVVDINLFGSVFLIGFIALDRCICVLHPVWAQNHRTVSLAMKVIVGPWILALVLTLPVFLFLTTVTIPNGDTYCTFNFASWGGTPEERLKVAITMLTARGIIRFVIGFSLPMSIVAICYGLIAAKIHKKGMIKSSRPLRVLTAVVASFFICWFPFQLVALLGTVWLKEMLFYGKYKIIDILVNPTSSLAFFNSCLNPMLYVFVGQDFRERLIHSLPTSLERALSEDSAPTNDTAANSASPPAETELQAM

With `CS(=O)(=O)NCC1(c2ccc(N3CCC[C@@H](NC(=O)Nc4ccc(C(F)(F)F)nc4)C3=O)cc2)CCC1` [Example 1, (R)—N-((1-(4-(2-Oxo-3-(3-(6-(trifluoromethyl)pyridin-3-yl)ureido)piperidin-1-yl)phenyl)cyclobutyl)methyl)methanesulfonamide], the EC50 (usually the concentration giving half of the maximal effect) was at most 10 nM.

`CS(=O)(=O)NCC1(c2ccc(N3CCC[C@@H](NC(=O)Nc4ccc(C(F)(F)F)nc4)C3=O)cc2F)CC1` [Example 2]: the EC50 is at most 10 nM. With `O=C(Nc1ccc(C(F)(F)F)nc1)N[C@@H]1CCCN(c2ccc(C3(CO)CC3)cc2)C1=O` [Example 3], the EC50 lay within 100 to 1250 nM. For the compound `CS(=O)(=O)NCC1(c2ccc(N3CCC[C@@H](NC(=O)Nc4ccc(C(F)(F)F)cn4)C3=O)c(F)c2)CC1` [Example 4], the EC50 was in the range of 10 to 100 nM.

Take `COc1cnc(NC(=O)N[C@@H]2CCCN(c3ccc(C4(CNS(C)(=O)=O)CC4)c(F)c3)C2=O)cn1` [Example 5]: the EC50 is at most 10 nM. Under `COc1cnc(NC(=O)N[C@@H]2CCCN(c3ccc(C4(CNS(C)(=O)=O)CCC4)cc3)C2=O)cn1` [Example 7] stands at most 10 nM. For `Cc1cnc(NC(=O)N[C@@H]2CCCN(c3ccc(C4(CNS(C)(=O)=O)CCC4)cc3)C2=O)cn1` [Example 8], the EC50 is at most 10 nM. As for `COc1cnc(NC(=O)N[C@@H]2CCCN(c3ccc(C4(CNS(C)(=O)=O)CC4)cc3)C2=O)cn1` [Example 9], the EC50 is at most 10 nM. For `COc1cnc(NC(=O)N[C@H]2CCCN(c3ccc(C4(CNS(C)(=O)=O)CCC4)cc3)C2=O)cn1` [Example 10] the value was 10 to 100 nM; for `COc1cnc(NC(=O)N[C@H]2CCCN(c3ccc(C4(CNS(C)(=O)=O)CC4)cc3)C2=O)cn1` [Example 11], 100 to 1250 nM; for `CS(=O)(=O)NCC1(c2ccc(N3CCC[C@H](NC(=O)Nc4cnc(Cl)cn4)C3=O)cc2)CCC1` [Example 12], at most 10 nM. Regarding `CS(=O)(=O)NCC1(c2ccc(N3CCC[C@@H](NC(=O)Nc4ncc(Cl)cc4Cl)C3=O)cc2)CCC1` [Example 13], the EC50 was in the range of 10 to 100 nM. On to `CS(=O)(=O)NCC1(c2ccc(N3CCC[C@@H](NC(=O)Nc4ncc(C(F)(F)F)cc4F)C3=O)cc2)CCC1` [Example 14], for which the EC50 was at most 10 nM. With `CS(=O)(=O)NCC1(c2ccc(N3CCC[C@H](NC(=O)Nc4ccc(C(F)(F)F)cc4)C3=O)cc2F)CC1` [Example 15], the EC50 was 10 to 100 nM.

For the compound `CS(=O)(=O)NCC1(c2ccc(N3CCC[C@@H](NC(=O)Nc4ncc(C(F)(F)F)cn4)C3=O)cc2)CC1` [Example 16], the concentration for a half-maximal effect (EC50) lay within 10 to 100 nM. With `CS(=O)(=O)NCC1(c2ccc(N3CCC[C@@H](NC(=O)Nc4ncc(C(F)(F)F)cc4F)C3=O)cc2F)CC1` [Example 17], the concentration giving a half-maximal response (EC50) is 10 to 100 nM.

As to `CS(=O)(=O)NCC1(c2ccc(N3CCC[C@@H](NC(=O)Nc4cnc(Cl)cn4)C3=O)cc2F)CC1` [Example 19], the EC50 is at most 10 nM. For `CS(=O)(=O)NCC1(c2ccc(N3CCC[C@@H](NC(=O)Nc4ncc(Cl)cc4F)C3=O)cc2F)CC1` [Example 20] the value was at most 10 nM. For `CS(=O)(=O)NCC1(c2ccc(N3CCC[C@@H](NC(=O)Nc4ccc(OC(F)F)nc4)C3=O)cc2F)CC1` [Example 21] the value was 10 to 100 nM.

Consider `CS(=O)(=O)NCC1(c2ccc(N3CCC[C@@H](NC(=O)Nc4ncc(Cl)cc4Cl)C3=O)cc2F)CC1` [Example 22], for which the EC50 was 100 to 1250 nM. In the case of `CS(=O)(=O)NCC1(c2ccc(N3CCC[C@@H](NC(=O)Nc4ccc(Cl)cn4)C3=O)cc2)CC1` [Example 23], the EC50 was at most 10 nM.

In the case of `COc1ccc(NC(=O)N[C@@H]2CCCN(c3ccc(C4(CNS(C)(=O)=O)CC4)cc3)C2=O)nc1` [Example 24], the concentration giving a half-maximal response (EC50) is at most 10 nM. For `Cc1cnc(NC(=O)N[C@@H]2CCCN(c3ccc(C4(CNS(C)(=O)=O)CC4)cc3)C2=O)cn1` [Example 25], the EC50 is at most 10 nM. Take `CS(=O)(=O)NCC1(c2ccc(N3CCC[C@@H](NC(=O)Nc4ccc(C(F)(F)F)cn4)C3=O)cc2F)CC1` [Example 26]: the 50% effective concentration (EC50) is 10 to 100 nM. In the case of `CS(=O)(=O)NCC1(c2ccc(N3CCC[C@@H](NC(=O)Nc4ccc(C(F)(F)F)cn4)C3=O)cc2)CCC1` [Example 28], the EC50 was at most 10 nM. `CS(=O)(=O)NCC1(c2ccc(N3CCC[C@@H](NC(=O)Nc4ccc(C(F)(F)F)cn4)C3=O)cc2)CCCC1` [Example 29]: the EC50 lay in the range of 10 to 100 nM. Consider `CS(=O)(=O)NCC1(c2ccc(N3CCC[C@H](NC(=O)Nc4ccc(C(F)(F)F)nc4)C3=O)cc2)CCC1` [Example 30], for which the EC50 was in the range of 100 to 1250 nM. In the case of `CS(=O)(=O)NCC1(c2ccc(N3CCC[C@@H](NC(=O)Nc4ccc(C(F)(F)F)nc4)C3=O)cc2)CCCC1` [Example 31], the EC50 was at most 10 nM. With `CS(=O)(=O)NCC1(c2ccc(N3CCC[C@H](NC(=O)Nc4ccc(C(F)(F)F)nc4)C3=O)cc2)CCCC1` [Example 32], the EC50 was 100 to 1250 nM. As for `CS(=O)(=O)NCC1(c2ccc(N3CCC[C@@H](NC(=O)Nc4ccc(C(F)(F)F)nc4)C3=O)cc2)CC1` [Example 33], the EC50 was at most 10 nM. Turning to `COc1cnc(NC(=O)N[C@@H]2CCCN(c3ccc(C4(CNS(C)(=O)=O)CC4)cc3)C2=O)c(F)c1` [Example 34], the EC50 was in the range of 10 to 100 nM. On to `CS(=O)(=O)NCC1(c2ccc(N3CCC[C@@H](NC(=O)Nc4ncc(Cl)cc4Cl)C3=O)cc2)CC1` [Example 35], for which the EC50 was in the range of 100 to 1250 nM.

Take `CS(=O)(=O)NCC1(c2ccc(N3CCC[C@@H](NC(=O)Nc4ccc(OC(F)F)nc4)C3=O)cc2)CC1` [Example 36]: the EC50 was at most 10 nM. Consider `CS(=O)(=O)NCC1(c2ccc(N3CCC[C@@H](NC(=O)Nc4cnc(C#N)cn4)C3=O)cc2)CC1` [Example 37], for which the EC50 fell in the range of 10 to 100 nM.

Take `CS(=O)(=O)NCC1(c2ccc(N3CCC[C@@H](NC(=O)Nc4ccc(OC(F)F)nc4)C3=O)cc2)CC1` [Example 38]: the concentration giving a half-maximal response (EC50) lay in the range of 100 to 1250 nM. For `CS(=O)(=O)NCC1(c2ccc(N3CCC[C@@H](NC(=O)Nc4ncc(Cl)cc4F)C3=O)cc2)CC1` [Example 39] the value was at most 10 nM; for `CS(=O)(=O)NCC1(c2ccc(N3CCC[C@@H](NC(=O)Nc4ncc(C(F)(F)F)cc4F)C3=O)cc2)CC1` [Example 40], 10 to 100 nM; for `CS(=O)(=O)NCC1(c2ccc(N3CCC[C@H](NC(=O)Nc4ccc(C(F)(F)F)cc4)C3=O)cc2)CC1` [Example 43], 10 to 100 nM. As to `CS(=O)(=O)NCC1(c2ccc(N3CCC[C@H](NC(=O)Nc4ccc(C(F)(F)F)nc4)C3=O)cc2)CC1` [Example 45], the EC50 was 100 to 1250 nM. As to `CS(=O)(=O)NCC1(c2ccc(N3CCC[C@@H](NC(=O)Nc4ccc(C(F)(F)F)cn4)C3=O)cc2)CC1` [Example 46], the concentration for a half-maximal effect (EC50) is at most 10 nM. In the case of `CS(=O)(=O)NCC1(c2ccc(N3CCC[C@H](NC(=O)Nc4ccc(C(F)(F)F)cn4)C3=O)cc2)CC1` [Example 47], the EC50 lay within 100 to 1250 nM.

Consider `N#CC1(c2ccc(N3CCC[C@H](NC(=O)Nc4ccc(C(F)(F)F)cc4)C3=O)cc2)CC1` [Example 48], for which the concentration for a half-maximal effect (EC50) fell in the range of 100 to 1250 nM. Turning to `N#CC1(c2ccc(N3CCC[C@@H](NC(=O)Nc4ccc(C(F)(F)F)cc4)C3=O)cc2)CC1` [Example 49], the EC50 is at most 10 nM.

On to `O=C(Nc1ccc(Cl)cc1)N[C@@H]1CCCN(c2ccc(C3CCOCC3)cc2)C1=O` [Example 50], for which the EC50 is at most 10 nM. For `O=C(Nc1ncc(Cl)cc1F)N[C@@H]1CCCN(c2ccc(C3(CN4CCOCC4)CC3)cc2)C1=O` [Example 54, (R)-1-(5-chloro-3-fluoropyridin-2-yl)-3-(1-(4-(1-(morpholinomethyl)cyclopropyl)phenyl)-2-oxopiperidin-3-yl)urea], the EC50 was in the range of 100 to 1250 nM.

Consider `O=C(Nc1ccc(C(F)(F)F)nc1)N[C@@H]1CCCN(c2ccc(C3(CN4CCCC4)CCC3)cc2)C1=O` [Example 56, (R)-1-(2-oxo-1-(4-(1-(pyrrolidin-1-ylmethyl)cyclobutyl)phenyl)piperidin-3-yl)-3-(6-(trifluoromethyl)pyridin-3-yl)urea], for which the EC50 lay in the range of 100 to 1250 nM. Turning to `O=C(Nc1ccc(C(F)(F)F)cn1)N[C@@H]1CCCN(c2ccc(C3(CN4CCCC4)CCC3)cc2)C1=O` [Example 59, (R)-1-(2-oxo-1-(4-(1-(pyrrolidin-1-ylmethyl)cyclobutyl)phenyl)piperidin-3-yl)-3-(5-(trifluoromethyl)pyridin-2-yl)urea], the EC50 is 100 to 1250 nM. For the compound `O=C(Nc1ccc(C(F)(F)F)cn1)N[C@@H]1CCCN(c2ccc(C3(CN4CCCC4)CCCC3)cc2)C1=O` [Example 60, (R)-1-(2-oxo-1-(4-(1-(pyrrolidin-1-ylmethyl)cyclopentyl)phenyl)piperidin-3-yl)-3-(5-(trifluoromethyl)pyridin-2-yl)urea], the half-maximal effective concentration (EC50) lay in the range of 100 to 1250 nM.

For the compound `O=C(Nc1ccc(C(F)(F)F)nc1)N[C@@H]1CCCN(c2ccc(C3(CN4CCOCC4)CCCC3)cc2)C1=O` [Example 61, (R)-1-(1-(4-(1-(morpholinomethyl)cyclopentyl)phenyl)-2-oxopiperidin-3-yl)-3-(6-(trifluoromethyl)pyridin-3-yl)urea], the EC50 is 100 to 1250 nM.
